According to patent US7556938B1, “Nucleic acids encoding potassium channel interactors” (Millennium Pharmaceuticals, Inc., priority 1998, dated 2009):

Key:
Kv4.3/KChIP1 = target: T1, Kv4.3/KChIP1 (Rattus norvegicus, UniProt Q62897); test: Fatty acid modulation of Kv4.3/KChIP1 current in Xenopus oocytes; type: cell-based; conditions: for block of Kv4.3 peak amplitude: Kv4.3/KChIP1, 10 μM fatty acid, vs no-fatty acid control; for effect on Kv4.3 inactivation time constant: Kv4.3 co-expressed with KChIP1, 10 μM fatty acid
T1 sequence (Q62897 1-655): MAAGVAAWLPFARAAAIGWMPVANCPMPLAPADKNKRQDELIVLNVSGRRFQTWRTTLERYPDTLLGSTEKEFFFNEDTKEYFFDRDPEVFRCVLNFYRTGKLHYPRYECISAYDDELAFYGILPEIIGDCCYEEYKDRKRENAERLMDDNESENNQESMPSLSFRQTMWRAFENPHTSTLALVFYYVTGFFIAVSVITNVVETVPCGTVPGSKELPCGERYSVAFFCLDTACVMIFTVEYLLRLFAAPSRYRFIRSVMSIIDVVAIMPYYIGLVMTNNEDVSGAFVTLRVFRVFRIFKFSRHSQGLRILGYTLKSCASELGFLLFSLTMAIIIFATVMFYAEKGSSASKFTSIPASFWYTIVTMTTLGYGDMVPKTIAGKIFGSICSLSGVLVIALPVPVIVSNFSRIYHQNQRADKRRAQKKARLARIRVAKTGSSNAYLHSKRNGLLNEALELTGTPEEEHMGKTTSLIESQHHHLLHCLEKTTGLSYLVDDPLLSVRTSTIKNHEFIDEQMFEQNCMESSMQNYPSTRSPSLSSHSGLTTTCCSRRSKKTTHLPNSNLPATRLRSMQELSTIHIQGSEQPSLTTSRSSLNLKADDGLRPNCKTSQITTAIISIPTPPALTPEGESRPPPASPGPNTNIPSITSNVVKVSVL
T1 sequence (Q8R426 1-216 isoform Q8R426-2 partner): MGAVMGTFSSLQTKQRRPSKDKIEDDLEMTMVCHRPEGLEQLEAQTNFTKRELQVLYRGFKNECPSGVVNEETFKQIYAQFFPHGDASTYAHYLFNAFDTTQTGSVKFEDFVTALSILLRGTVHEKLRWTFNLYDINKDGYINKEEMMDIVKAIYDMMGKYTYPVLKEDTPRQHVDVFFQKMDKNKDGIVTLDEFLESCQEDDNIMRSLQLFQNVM
Description: (§1) Frogs underwent no more than two surgeries and surgeries were performed by well established techniques. Frogs were anesthetized with ice. Total cRNA (1-10 ng) was injected into stage IV Xenopus oocytes that were harvested the previous day. The Xenopus oocytes were incubated in ND96 containing (in mM) 96 NaCl, 2 KCl, 1.8 CaCl2, 1 MgCl2, 5 HEPES, pH 7.6, plus (Gentamycin 50 μg/ml) at 18° C. Xenopus oocytes were studied 3-7 days after injection. The two-electrode voltage-clamp recordings were performed in ND96 solution using a TURBO TEC 03 Clamp Amplifier (ALA Scientific Instruments, Westbury, N.Y.). Both electrodes were filled with 3 M KCl and had electrode resistances ranging from 0.2-1 MOhm. The current signals were filtered at 1000 Hz before transferred on a PC (Gateway, Calif.) using the PULSE software (HEKA, Germany). In this Example, the hypothesis that […] were the missing auxiliary subunits that accounted for the above kinetic discrepancy was investigated by expressing Kv4 alone or together with […] in both CHO cells and Xenopus oocytes, and measuring their inactivation time constants (using art known techniques as described in, for example, An et al. (2000) Nature 403:553-6; Keros, S. and […]. Neuroscience 17: 3476-87; and Villarroel, A. and […]. Neuroscience 16:2522-32). The effects of different concentrations of arachidonic acid on Kv4/KChIP current was studied in Xenopus oocytes. Because the physiological concentrations of arachidonic acid are often under 10 μM (Needleman, et al., 1986 Annu Rev Biochem 55:69-102; Anderson and Welsh, 1990, Proc Natl Acad Sci USA 87:7334-8; Meves, 1994, Prog Neurobiol 43:175-86), arachidonic acid was tested in the 1-10 μM range. […] Further, the slope of amplitude reduction as a function of increasing concentrations was very similar with or without the presence of […]. […] Villarroel and Schwarz, (1996) J.

Kv4.3 = test: Fatty acid modulation of Kv4.3 current (Kv4.3 alone) in Xenopus oocytes; type: cell-based, rat; conditions: Kv4.3 alone, 10 μM fatty acid, vs no-fatty acid control
Description: as §1

| block of Kv4.3 peak amplitude (Kv4.3/KChIP1) | effect on Kv4.3 inactivation time constant (Kv4.3/KChIP1) | Compound | block of Kv4.3 peak amplitude (Kv4.3) |
| --- | --- | --- | --- |
| inhibited significantly | reduced Kv4.3 inactivation time constant | CCCCCC#CCC#CCC#CCC#CCCCC(=O)O [ETYA, 5,8,11,14-eicosatetraynoic acid] | inhibited significantly |
| inhibited significantly | reduced Kv4.3 inactivation time constant | CCCCCCCCC#CCC#CCC#CCCCC(=O)O [ETI, 5,8,11-eicosatriynoic acid] | inhibited significantly |
| inhibited significantly | reduced Kv4.3 inactivation time constant | CCCCC/C=C\C/C=C\C/C=C\CCCCC(=O)O [γ-linolenic acid] | inhibited significantly |

| Compound | block of Kv4.3 peak amplitude (Kv4.3/KChIP1) | effect on Kv4.3 inactivation time constant (Kv4.3/KChIP1) | block of Kv4.3 peak amplitude (Kv4.3) |
| --- | --- | --- | --- |
| CCCCC/C=C/C/C=C/CCCCCCCC(=O)O [linolelaidic acid] | small, statistically significant block | did not affect the Kv4.3 inactivation time constant | All values except that of linolelaidic acid/Kv4.3 alone were statistically significant |
